Reference: patent publication US20110054028A1, “SUPPLEMENT FOR REDUCING HIV TR[…] METHOD THEREOF” (priority 2009, published 2011)

Tested on: HIV-1 (NL4-3) viral release in HeLa cells
Test: HIV-1 viral release in HeLa cells transfected with NL4-3 (p24 antigen assay)
Format: cell-based
Conditions: HeLa cells expressing NL4-3
Protocol: HeLa cells at 50% confluency in P25 flasks were transiently transfected with 2-3 μg of one of the HIV-1 proviral constructs (pNL4-3; pNL4-3/Udel). One-tenth of the culture media was retrieved from each sample and filtered through a 0.22-μm syringe filter at each time point. Cells were collected at the end and subjected to whole-cell lysis by 1% SDS. The viral content in culture media and in cell lysates was determined by Coulter HIV-1 p24 Antigen Assay kit. Virus release was compared to that from the control (co-transfection of pNL4-3 and pCGI). Data are expressed as mean±SEM from 8 independent experiments.
For the inhibitory effects of K2P channel, different quantities (0.02-10 μM) of arachidonic acid (Sigma) were tested in HeLa cell culture at the 24th hour post-transfection of NL4-3, and one-tenth of the media was retrieved and filtered at each time point. Viral release was compared to that of the untreated HeLa cell set at 100% (control).
Referring to FIG. 3, the inhibitory effects of HIV-1 viral release in HeLa cells at the 4th hour after arachidonic acid (AA) supplementation were shown. […] Moreover, 50-60% of the release inhibition could be achieved by AA at 0.5×10^−7˜10^−6 M.

CCCCC/C=C\C/C=C\C/C=C\C/C=C\CCCC(=O)O [AA, arachidonic acid]
release inhibition (HIV-1 viral release) (4th hour after AA supplementation, AA at 0.5×10^−7˜10^−6 M, untreated HeLa cell set at 100%): 50-60%
suppression of viral release (submicromolar concentrations, 4th hour after supplementation): could suppress viral release
